Data: the NIST ThermoML archive (doi:10.1007/s10765-013-1469-0)
Numbers after ± are expanded uncertainties.

How the values were obtained:
[1] = 101 kPa, Liquid; for viscosity: Concentric cylinders viscometry; for mass density: Vibrating tube method
[2] = refractive index (Na D-line) (dimensionless); details: 101.33 kPa, Liquid, Standard Abbe refractometry
[3] = xn = mol fraction of the nth substance listed; details: 101 kPa, Liquid, x1 = 1; for viscosity: Concentric cylinders viscometry; for mass density: Vibrating tube method
[4] = refractive index (Na D-line) (dimensionless); xn = mol fraction of the nth substance listed; details: 101 kPa, Liquid, Standard Abbe refractometry, x1 = 1

COCCOCCOCCOCCOC [2,5,8,11,14-pentaoxapentadecane]
Details	mass density, [1] [kg/m3]	refractive index, [2]	viscosity, [1] [mPa·s]
288.15 K	1015.63 ± 0.1	1.4345 ± 0.00033	4.341 ± 0.04
293.15 K	1011 ± 0.1	1.43238 ± 0.00033	3.834 ± 0.035
298.15 K	1006.36 ± 0.1	1.43027 ± 0.00033	3.38 ± 0.031
303.15 K	1001.73 ± 0.098	1.42815 ± 0.00033	3.004 ± 0.028
308.15 K	997.104 ± 0.098	1.42603 ± 0.00033	2.691 ± 0.025
313.15 K	992.481 ± 0.099	1.42394 ± 0.00033	2.426 ± 0.023
318.15 K	987.859 ± 0.1	1.42183 ± 0.00033	2.199 ± 0.021
323.15 K	983.234 ± 0.1	1.41973 ± 0.00033	2.006 ± 0.019
328.15 K	978.613 ± 0.1	1.41765 ± 0.00033	1.838 ± 0.018
333.15 K	973.989 ± 0.1	1.41553 ± 0.00033	1.691 ± 0.016

CCCCO [butan-1-ol]
Details	mass density, [1] [kg/m3]	refractive index, [2]	viscosity, [1] [mPa·s]
288.15 K	813.407 ± 0.14	1.40131 ± 0.00033	3.356 ± 0.031
293.15 K	809.621 ± 0.14	1.39932 ± 0.00033	2.965 ± 0.028
298.15 K	805.804 ± 0.15	1.39729 ± 0.00033	2.593 ± 0.024
303.15 K	801.964 ± 0.15	1.39529 ± 0.00033	2.277 ± 0.022
308.15 K	798.091 ± 0.15	1.39317 ± 0.00033	2.008 ± 0.019
313.15 K	794.181 ± 0.15	1.39104 ± 0.00033	1.78 ± 0.017
318.15 K	790.229 ± 0.15	1.38893 ± 0.00033	1.583 ± 0.015
323.15 K	786.228 ± 0.15	1.38683 ± 0.00033	1.412 ± 0.014
328.15 K	782.172 ± 0.15	1.38474 ± 0.00033	1.264 ± 0.013
333.15 K	778.056 ± 0.15	1.38237 ± 0.00033	1.132 ± 0.012

CCCCO [butan-1-ol] + COCCOCCOCCOCCOC
Details	mass density, [3] [kg/m3]	refractive index, [4]	viscosity, [3] [mPa·s]
288.15 K	813.407 ± 0.14	1.40131 ± 0.00033	3.356 ± 0.031
293.15 K	809.621 ± 0.14	1.39932 ± 0.00033	2.965 ± 0.028
298.15 K	805.804 ± 0.15	1.39729 ± 0.00033	2.593 ± 0.024
303.15 K	801.964 ± 0.15	1.39529 ± 0.00033	2.277 ± 0.022
308.15 K	798.091 ± 0.15	1.39317 ± 0.00033	2.008 ± 0.019
313.15 K	794.181 ± 0.15	1.39104 ± 0.00033	1.78 ± 0.017
318.15 K	790.229 ± 0.15	1.38893 ± 0.00033	1.583 ± 0.015
323.15 K	786.228 ± 0.15	1.38683 ± 0.00033	1.412 ± 0.014
328.15 K	782.172 ± 0.15	1.38474 ± 0.00033	1.264 ± 0.013
333.15 K	778.056 ± 0.15	1.38237 ± 0.00033	1.132 ± 0.012
